In patent publication US20120301551A1, “COMPOUNDS AND COMPOSITIONS FOR TREATING NEURONAL DEATH OR NEUROLOGICAL DYSFUNCTION” (Neurotech Pharmaceuticals Co., Ltd., priority 2005, published 2012):
Where two headings read alike, the source gives them in different places.

Assays:
G93A mouse = test: oxidative toxicity in G93A mouse (nitrotyrosine immunostaining); assay type: in vivo; details: G93A mice at ages of 10 weeks
Procedure: Reactive oxygen species (ROS) produced in progress of ALS disease was evaluated in G93A mouse.

[1] = superoxide scavenging in test tube; assay type: biochemical; details: read-out: superoxide scavenging effect (IC50 value)
Procedure: In addition, scavenging effects of superoxide and hydroxyl radical in test tube were evaluated. Hydroxyl radical scavenging activities of 0.1 uM, 1 uM and 10 uM of chemical 01 were 13.35%, 33.33% and 71.72%, respectively.

[2] = tested on: cerebral cortical cell cultures; test: nerve cell death by MPP+ in cerebral cortical cell cultures (LDH); assay type: cell-based; details: 50 uM MPP+
Procedure: Cerebral cortical cell cultures (DIV 13˜15) were continuously exposed to 50 uM MPP+ alone or with inclusion of 0.03-3 uM of chemical 01. After 24 hours, activity of LDH released outside cell was evaluated to quantify death of nerve cell (mean±SEM, n=4 culture well/each group).

For `O=C(O)c1cc(NCCc2ccc(C(F)(F)F)cc2)ccc1O` [chemical 01, 2-Hydroxy-5-[2-(4-trifluoromethyl-phenyl)-ethylamino]-benzoic acid], the “fluorescence intensity of nitrotyrosine (oxidative toxicity) in motor neurons” value (G93A mouse) was “decreased”, the IC50 ([1]; NADH/PMS system) was 26.1 µM and the IC50 ([1]; X/XO system) was over 100 µM. For the same compound, the IC50 ([2]; 24 hours, LDH, read-out: IC50, nerve cell death caused by MPP+) was 0.057 µM and the “nerve cell death caused by MPP+, in words” value ([2]; 0.03-3 uM) was “dose-dependent manner”.
